What is called IC50 is the midpoint of a concentration-inhibition curve.

Where no end group is shown, it is not given here.

Results on four compounds are retold here after paper PMC9544171, “Glucose‐dependent insulinotropic polypeptide receptor antagonist treatment causes a reduction in weight gain in ovariectomised high fat diet‐fed mice” (British Journal of Pharmacology, 2022).

Assay [1] concerns Female C57Bl6/J mice. The experiment in a line: Intraperitoneal glucose tolerance test, inhibition of exogenous GIP. It counts as in vivo, mouse. As for the experimental part:
To assess the biological activity of mGIPAnt‐1, we performed an intraperitoneal glucose tolerance test. Mice were fasted for 4 h and given either mGIPAnt‐1 ([…]; s.c.) or vehicle at t = −90 min. Group sizes were as follows:‐ Vehicle + Vehicle, n = 10, Vehicle + GIP, n = 12 and mGIPAnt‐1 + GIP, n = 8. Varying group numbers were due to unsuccessful administration of one of the four compounds as confirmed by measurements of plasma concentrations. At t = −10 all mice were given an intraperitoneal (i.p.) injection with dipeptidyl peptidase‐4 (DPP‐4) inhibitor valine pyrrolidide followed by s.c. injection of either 25 nmol·kg^−1 GIP (Synthetic mouse GIP(1‐42) or vehicle. At t = 0 min, mice received an i.p. injection with 0.5‐g·kg^−1 glucose. Blood glucose was measured from the tail vein using a hand‐held glucometer (Accu‐Chek Mobile, Roche, Basel, Switzerland) at t = 0, 10, 30, 45, 60, 120 and 180 min. Retro‐orbital blood samples (50 μl) were taken using EDTA coated glass capillaries (Vitrex, Vasekær, Denmark) at t = 0, 15, 30 and 60, 120 and 180 min and centrifuged at 3500g, 20 min, 4°C. Plasma was transferred into Eppendorf tubes on dry ice and stored at −20°C for later insulin measurements.
(§1) To facilitate comparisons of assay outputs (cAMP assays), the results (of duplicate measurements) were normalized, with the response to 10 pM of GIP(1‐42) set as 100%. All ligand concentrations are reported as log‐transformed. The IC50 log values can be found in Figure 1. In Figure 3c, we have subtracted glucose levels from baseline to show the net differences in glucose levels in our different treatment groups.

In assay [2] the target is T1, mouse GIP receptor (Mus musculus, UniProt Q0P543).
T1 construct: host or cells: COS-7
T1 sequence (Q0P543 19-460): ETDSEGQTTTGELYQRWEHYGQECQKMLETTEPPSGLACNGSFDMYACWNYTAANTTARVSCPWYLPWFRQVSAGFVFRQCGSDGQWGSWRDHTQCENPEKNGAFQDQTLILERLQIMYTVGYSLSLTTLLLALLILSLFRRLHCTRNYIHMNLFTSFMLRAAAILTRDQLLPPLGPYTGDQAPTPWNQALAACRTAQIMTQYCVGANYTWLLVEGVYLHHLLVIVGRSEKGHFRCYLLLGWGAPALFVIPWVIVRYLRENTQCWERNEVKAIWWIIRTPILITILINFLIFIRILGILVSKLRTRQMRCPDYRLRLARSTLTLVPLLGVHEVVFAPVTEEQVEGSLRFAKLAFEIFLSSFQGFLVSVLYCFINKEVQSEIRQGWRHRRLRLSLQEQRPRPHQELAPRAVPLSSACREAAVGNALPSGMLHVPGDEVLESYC
The experiment in a line: cAMP accumulation, antagonism of mouse GIP(1‐42) in transfected COS‐7 cells. It is filed as cell-based. Conditions: COS‐7 transiently transfected with mouse GIPR; 10 min preincubation with antagonist, then mouse GIP(1‐42) at 50%–80% of Emax for 20 min; HitHunter cAMP; Hill slope −1.0; n = 5 independent experiments; read-out: IC50, inhibition of mGIP‐induced cAMP accumulation, mouse GIPR. As for the experimental part: (§2) COS‐7 cells were cultured at 10% CO2 and 37°C in Dulbecco's Modified Eagle Medium 1885 supplemented with 10% foetal bovine serum, 2‐mM glutamine, 180‐units ml^−1 penicillin and […] streptomycin. Transient transfection of the cells with either human or mouse GIP receptor was performed using the calcium phosphate precipitation method as previously described (van der Velden et al., [2021]). A second set of cells was transiently transfected with either mouse GLP‐1 or GLP‐2 receptor. Following the day after transfection, the cells were seeded in white 96‐well plates with a density of 35.000 cells per well. The next day the assay was initiated by washing the cells with HEPES buffered saline (HBS) followed by an incubation step with HBS and 1‐mM 3‐isobutyl‐1‐methylxanthine for 30 min at 37°C. For agonist studies, the ligands were then added and incubated for an additional 30 min at 37°C. To test for antagonistic properties, the cells were first preincubated for 10 min with the antagonist with subsequent addition of the agonist and incubated for an additional 20 min. The HitHunter® cAMP assay (Eurofins DiscoverX, Fremont, USA) was carried out according to the manufacturer's protocol. Luminescence was measured by PerkinElmer™ Envision 2014 Multilabel Reader.
To facilitate comparisons of assay outputs (cAMP assays), the results (of duplicate measurements) were normalized, with the response to 10 pM of GIP(1‐42) set as 100%. All ligand concentrations are reported as log‐transformed. The IC50 log values can be found in Figure 1. In Figure 3c, we have subtracted glucose levels from baseline to show the net differences in glucose levels in our different treatment groups. […]
Results are presented as mean ± SE. Data were analysed with one‐way and two‐way analysis of variance (ANOVA) with Tukey's or Sidak multiple comparisons test and Student's unpaired t tests where appropriate. […] For the in vitro data IC50 values were determined by nonlinear regression using GraphPad Prism 9 (San Diego, California, USA). […]
For orientation: Changes in cAMP serve as a functional read-out for many G protein-coupled receptors.

In assay [3] the target is T1, mouse GIP receptor. The experiment in a line: cAMP accumulation, agonism (intrinsic activity) in transfected COS‐7 cells. It is filed as cell-based. Particulars: increasing concentrations of ligand alone, 30 min, COS‐7, n = 5. Here is the method:
as §2, §1
FIGURE 1 In vitro signalling profile of mGIPAnt‐1 on the mouse and human glucose‐dependent insulinotropic polypeptide receptor/(GIPR). COS‐7 cells were transiently transfected with (a) mouse GIPR or (b) human GIPR and assayed for cAMP accumulation. To test for agonism, increasing concentration of the ligand was added. […]

In assay [4] the target is T2, human GIP receptor (Homo sapiens, UniProt P48546).
T2 construct: host or cells: COS-7
T2 sequence (P48546 22-466): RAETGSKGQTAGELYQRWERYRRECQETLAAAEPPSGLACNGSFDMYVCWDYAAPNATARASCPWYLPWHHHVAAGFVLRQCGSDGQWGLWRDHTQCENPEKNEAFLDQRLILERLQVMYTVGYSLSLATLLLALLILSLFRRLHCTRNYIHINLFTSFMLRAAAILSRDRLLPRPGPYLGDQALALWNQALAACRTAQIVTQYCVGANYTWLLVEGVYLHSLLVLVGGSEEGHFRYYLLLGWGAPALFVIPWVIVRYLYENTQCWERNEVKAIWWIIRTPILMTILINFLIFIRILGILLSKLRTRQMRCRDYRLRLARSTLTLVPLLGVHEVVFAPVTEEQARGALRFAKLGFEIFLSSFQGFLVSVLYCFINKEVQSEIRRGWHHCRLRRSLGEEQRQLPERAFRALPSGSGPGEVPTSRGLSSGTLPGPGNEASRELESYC
Particulars: previously shown, [2016], cited from earlier work. Here is the method:
The antagonistic properties of mGIPAnt‐1 were determined in vitro in cAMP accumulation before initiation of the in vivo studies in comparison to the naturally occurring […] GIP(3‐30)NH2. The experiments were done on both the human and mouse GIP receptor to examine the translatability between species. To keep the experiments species specific, mGIPAnt‐1 was compared to mouse GIP(3‐30)NH2 (mGIP(3‐30)NH2) on the mouse GIP receptor and human GIP(3‐30)NH2 (hGIP(3‐30)NH2) on the human GIP receptor. We also determined whether mGIPAnt‐1 had any intrinsic activity. Here we observed no activation of the ...

Assay [5] has as its target T3, mouse GLP‐2 receptor (Mus musculus, UniProt Q5IXF8).
T3 construct: host or cells: COS-7
T3 sequence (Q5IXF8 1-512): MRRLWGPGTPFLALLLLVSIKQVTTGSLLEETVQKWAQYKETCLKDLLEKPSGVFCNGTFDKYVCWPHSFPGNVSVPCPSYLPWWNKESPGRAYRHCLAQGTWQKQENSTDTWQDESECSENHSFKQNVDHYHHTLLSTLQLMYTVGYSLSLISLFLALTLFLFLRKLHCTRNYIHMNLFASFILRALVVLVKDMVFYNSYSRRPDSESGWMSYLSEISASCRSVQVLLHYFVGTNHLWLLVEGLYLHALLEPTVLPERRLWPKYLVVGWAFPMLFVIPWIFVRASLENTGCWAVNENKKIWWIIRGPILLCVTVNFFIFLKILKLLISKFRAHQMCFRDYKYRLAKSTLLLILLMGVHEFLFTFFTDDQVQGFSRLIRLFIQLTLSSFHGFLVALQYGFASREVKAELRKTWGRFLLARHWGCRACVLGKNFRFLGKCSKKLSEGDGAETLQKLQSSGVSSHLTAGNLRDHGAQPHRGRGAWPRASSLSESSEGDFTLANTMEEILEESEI
The experiment in a line: cAMP accumulation, agonism in transfected COS‐7 cells. It is filed as cell-based. Particulars: increasing concentrations, COS‐7, n = 5. As for the experimental part: as §2
FIGURE 2 In vitro signalling profile of mGIPAnt‐1 on the mouse GLP‐1 and GLP‐2 receptor (R). […]

For “Synthetic mouse GIP(1‐42) (YAEGTFISDYSIAMDKIRQQDFVNWLLAQRGKKSDWKHNITQ; Gastric inhibitory polypeptide; UniProt P48756 44-85, looked up) [reference compound]”, the “baseline‐subtracted glucose curve during IPGTT” value in assay [1] (mGIPAnt‐1 25 μmol·kg−1 s.c. t = −90 min, GIP 25 nmol·kg−1 s.c. and val‐pyr t = −10 min, glucose 0.5 g·kg−1 i.p., n = 8–12) was “lowered glucose levels significantly from t = 45 min and onwards”. Also, in assay [1] (t = 120 and 180 min, same dosing as glucose curve), the “glucose levels relative to baseline late in IPGTT” value is “glucose levels dropped significantly below baseline at t = 120 and t = 180 min”. For the same compound, the “incremental area under the glucose curve (iAUC), IPGTT” value in assay [1] (vehicle + GIP 25 nmol·kg−1 versus vehicle + vehicle and versus mGIPAnt‐1 + GIP) was “significantly different”.
Take `CC[C@H](C)[C@H](NC(=O)[C@H](CO)NC(=O)[C@H](Cc1ccc(O)cc1)NC(=O)[C@H](CC(=O)O)NC(=O)[C@H](CO)NC(=O)[C@@H](NC(=O)[C@H](Cc1ccccc1)NC(=O)[C@@H](NC(=O)CNC(=O)[C@@H](N)CCC(=O)O)[C@@H](C)O)[C@@H](C)CC)C(=O)N[C@@H](C)C(=O)N[C@@H](CCSC)C(=O)N[C@@H](CC(=O)O)C(=O)N[C@@H](CCCCN)C(=O)N[C@H](C(=O)N[C@@H](CCCNC(=N)N)C(=O)N[C@@H](CCC(N)=O)C(=O)N[C@@H](CCC(N)=O)C(=O)N[C@@H](CC(=O)O)C(=O)N[C@@H](Cc1ccccc1)C(=O)N[C@H](C(=O)N[C@@H](CC(N)=O)C(=O)N[C@@H](Cc1c[nH]c2ccccc12)C(=O)N[C@@H](CC(C)C)C(=O)N[C@@H](CC(C)C)C(=O)N[C@@H](C)C(=O)N[C@@H](CCC(N)=O)C(=O)N[C@@H](CCCNC(=N)N)C(N)=O)C(C)C)[C@@H](C)CC` [mGIP(3‐30)NH2, mouse GIP(3‐30)NH2, reference compound]: in assay [2], the half-inhibitory concentration (IC50) is 813 nM. For the same compound, the “intrinsic activity (activation of mouse GIP receptor, cAMP)” value in assay [3] is reported as “neither did mGIP(3‐30)NH2 activate”.
Turning to “human GIP(3‐30)NH2 (EGTFISDYSIAMDKIHQQDFVNWLLAQK-NH2; UniProt P09681 54-81, looked up, fragment) [hGIP(3‐30)NH2]”, the “intrinsic activity (activation of human GIP receptor)” value in assay [4] (ref Gabe et al., [2018], Gasbjerg et al., [2017], Hansen et al.) is on record as “no activation”. For the same compound, the half-inhibitory concentration (IC50) in assay [4] (ref Hansen et al., read-out: IC50, antagonism of human GIPR) was 12 nM.
Regarding “mGLP‐2: mouse GLP‐2, control agonist at the mouse GLP‐2 receptor (HADGSFSDEMSTILDNLATRDFINWLIQTKITD; Glucagon-like peptide 2; UniProt P55095 146-178, looked up) [reference compound]”, the “activation of mouse GLP‐2 receptor (cAMP)” value in assay [5] is recorded as “shown to activate their receptors”.
